Measured values reported in paper PMC7464559, “Synthesis, Optimization, Antifungal Activity, Selectivity, and CYP51 Binding of New 2-Aryl-3-azolyl-1-indolyl-propan-2-ols” (Pharmaceuticals, 2020).
Converted amounts (≈) assume the structure as drawn. “Also recorded” adds a separate entry of the source.

Key:
[1] = target: T1, 11β-hydroxylase (CYP11B1) (Homo sapiens, UniProt P15538); assay: In vitro inhibition of CYP11B1 (Schizosaccharomyces pombe SZ1); assay type: cell-based; settings: inhibitor 100 nM to 5 µM, three to four independent experiments
T1 construct: expressed in transfected cells; host or cells: Schizosaccharomyces pombe strain SZ1
T1 sequence (P15538 25-503): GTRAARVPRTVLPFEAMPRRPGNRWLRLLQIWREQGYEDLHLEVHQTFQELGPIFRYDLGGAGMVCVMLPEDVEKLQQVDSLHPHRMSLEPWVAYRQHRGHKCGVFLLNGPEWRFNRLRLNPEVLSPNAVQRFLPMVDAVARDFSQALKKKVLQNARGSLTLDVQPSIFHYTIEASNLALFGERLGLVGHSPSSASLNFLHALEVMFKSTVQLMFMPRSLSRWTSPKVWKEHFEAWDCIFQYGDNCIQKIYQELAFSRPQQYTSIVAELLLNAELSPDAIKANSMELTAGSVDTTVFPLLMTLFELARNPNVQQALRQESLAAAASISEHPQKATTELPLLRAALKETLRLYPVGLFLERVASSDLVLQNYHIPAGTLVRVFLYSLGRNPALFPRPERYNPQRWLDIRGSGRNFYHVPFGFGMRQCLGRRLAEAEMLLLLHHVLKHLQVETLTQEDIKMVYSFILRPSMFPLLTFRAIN
Method: (§1) For the CYP11B1 assay, 11-deoxycortisol (RSS) was used as substrate, whereas 11-deoxycorticosterone (DOC) was used for the CYP11B2 assay. These non-radioactive steroids were purchased from Sima (Deisenhofen, Germany). Radioactive steroids were obtained from Amersham Pharmacia Biotech (Freiburg, Germany). Two Schizosaccharomyces pombe strains were used, SZ1 expressing CYP11B1 and MB164 expressing CYP11B2. The assays were performed as described previously by Bureik et al.. Exponentially growing fission yeast cells were cultivated by shaking and with good aeration at 30 °C in 500 µL Edinburgh Minimal Medium Glutamate (EMMG) containing supplements as required. Inhibitors were dissolved in ethanol at different concentrations, and equal volumes of ethanolic solutions were used in all cases (including controls). Final concentrations of inhibitors ranged from 100 nM to 5 µM. Cells were preincubated with the respective inhibitor solutions for 15 min prior to the addition of steroid substrates (100 nM DOC or 100 nM RSS, respectively). For detection of steroids, 1% of the total substrate amount was radioactively labeled as [^3H]RSS, [^3H]DOC, or [^14C]DOC. After 4 h (MB164) or 24 h (SZ1) cultures were extracted with chloroform and dried under vacuum. The residues were dissolved in 10 µL chloroform and spotted onto glass-backed silica-coated HPTLC plates (Kieselgel 60 F254, Merck; Darmstadt, Germany). In addition, small amounts of non-radioactive steroids were spotted as references. The HPTLC was developed twice in chloroform/methanol/water (300:20:1, v/v/v) and steroids identified after exposure to Fuji imaging plates and quantitated on a phosphoimager (BAS-2500, Fuji; Stamford, CT, USA).

[2] = target: T2, 17α-hydroxylase/17,20-lyase (CYP17) (Homo sapiens, UniProt P05093); assay: In vitro inhibition of 17α-hydroxylase/17,20-lyase; assay type: biochemical; settings: at 2.5 µM
T2 sequence (P05093 1-508): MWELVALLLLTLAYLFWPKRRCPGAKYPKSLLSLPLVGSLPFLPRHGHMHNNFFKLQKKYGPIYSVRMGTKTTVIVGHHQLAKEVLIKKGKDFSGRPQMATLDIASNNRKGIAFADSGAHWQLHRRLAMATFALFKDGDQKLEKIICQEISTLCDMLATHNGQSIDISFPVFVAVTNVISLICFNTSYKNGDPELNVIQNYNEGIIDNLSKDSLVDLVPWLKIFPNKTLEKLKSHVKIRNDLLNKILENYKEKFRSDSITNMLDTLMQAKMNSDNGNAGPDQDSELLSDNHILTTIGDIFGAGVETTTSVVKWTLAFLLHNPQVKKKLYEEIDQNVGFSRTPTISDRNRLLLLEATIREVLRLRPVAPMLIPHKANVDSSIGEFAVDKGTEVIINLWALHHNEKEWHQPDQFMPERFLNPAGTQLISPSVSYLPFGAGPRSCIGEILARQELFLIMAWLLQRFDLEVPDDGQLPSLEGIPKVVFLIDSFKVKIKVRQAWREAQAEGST
Method: The assay was performed similar to described methods [29, 52]. […] Microsomal protein was added to start the reaction. […] After the addition of 1 mL EtOAc, the vials were shaken then centrifuged. The organic phase was removed, vortexed with phosphate buffer (250 µL), 1 M aqueous HCl (50 µL), and then dried. Aliquots of 25 µL methanol, containing 250 pmol of fluorocortisol acetate as internal standard, were added to the extracts. The samples (20 µL) were submitted to HPLC (RP-8 column, methanol/water 1:1, v/v) and measured using UV (240 nm).

[3] = test system: CA98005 (Candida albicans); assay: Anti-Candida in vitro assay, CA98005; assay type: cell-based; settings: Candida albicans CA98005, mean of triplicate; read-out: MIC (IC80) CA98005
Method: Test fungal strains were obtained from the American Type Culture Collection (ATCC) or were clinical isolates from the Laboratory of Parasitology and Medical Mycology, Centre Hospitalier Universitaire (CHU) of Nantes. The strains were maintained on Sabouraud agar slants and were subcultured 24 h before used. The activity of the target compounds 8a–g and 11a–m was determined by the method previously described. Briefly, molecules were diluted in RPMI 1640 medium supplemented with 0.165 M morpholinopropanesulphonic acid (Sigma-Aldrich, Saint-Quentin Fallavier, France), 2% glucose, and antibiotics. Candida suspensions were prepared in RPMI 1640 medium (Sigma-Aldrich, Saint-Quentin Fallavier, France) adjusted to give a final concentration of 10^3 cells/mL, and a 96-well microplate (Nunc, D. Dutscher, Brumath, France) was seeded with 100 µL. Each concentration of molecules (100 µL) to be tested was added (in triplicate) and plates were incubated at 37 °C for 24 h. The cellular viability was evaluated on the Fluorolite 1000 (Dynatech, France) with an excitation at 550 nm and an emission at 590 nm after a 4 h incubation with 10 µL of Alamar Blue®. […] MIC was expressed as the mean of the triplicate values. KTC and FLC were used as standards.

[4] = target: T3, aldosterone synthase (CYP11B2) (Homo sapiens, UniProt P19099); assay: In vitro inhibition of CYP11B2 (Schizosaccharomyces pombe MB164); assay type: cell-based; settings: inhibitor 100 nM to 5 µM, three to four independent experiments
T3 construct: expressed in transfected cells; host or cells: Schizosaccharomyces pombe strain MB164
T3 sequence (P19099 25-503): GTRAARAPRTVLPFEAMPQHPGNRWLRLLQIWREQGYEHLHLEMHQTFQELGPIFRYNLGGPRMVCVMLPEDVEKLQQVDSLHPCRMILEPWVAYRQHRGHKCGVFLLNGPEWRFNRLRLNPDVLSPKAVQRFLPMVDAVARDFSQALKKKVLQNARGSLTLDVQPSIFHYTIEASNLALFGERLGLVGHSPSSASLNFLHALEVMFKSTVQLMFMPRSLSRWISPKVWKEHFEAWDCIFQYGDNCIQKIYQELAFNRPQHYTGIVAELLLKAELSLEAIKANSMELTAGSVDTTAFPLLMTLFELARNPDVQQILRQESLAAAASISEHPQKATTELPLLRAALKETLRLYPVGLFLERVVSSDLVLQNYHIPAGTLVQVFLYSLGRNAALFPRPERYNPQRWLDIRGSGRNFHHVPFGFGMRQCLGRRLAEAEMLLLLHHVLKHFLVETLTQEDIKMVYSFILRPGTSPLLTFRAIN
Method: as §1

## OC(Cn1cncn1)(Cn1ccc2ccccc21)c1ccc(Cl)cc1Cl (stereo not drawn) [Compound 8g, 2-(2,4-Dichlorophenyl)-3-(1H-indol-1-yl)-1-(1H-1,2,4-triazol-1-yl)-propan-2-ol]
[1]
  CYP11B1 inhibition effect: no inhibitory activity; also recorded: no inhibition
[2]
  inhibition at […]: < 10%
[3]
  MIC: < 0.004 µg/mL
[4]
  CYP11B2 inhibition effect: slight inhibitory effect; also recorded: slight inhibition

## O[C@@](Cn1cncn1)(Cn1ccc2ccccc21)c1ccc(Cl)cc1Cl [(+)-(R)-8g]
[1]
  CYP11B1 inhibition effect: no inhibition
[2]
  inhibition at […]: < 5%
[3]
  MIC: 2.71 µg/mL (≈ 6.99 µM)
[4]
  CYP11B2 inhibition effect: slight inhibitory effect; also recorded: slight inhibition

## O[C@](Cn1cncn1)(Cn1ccc2ccccc21)c1ccc(Cl)cc1Cl [(−)-(S)-8g]
[1]
  CYP11B1 inhibition effect: no inhibition
[2]
  inhibition at […]: < 5%
[3]
  MIC: 0.026 µg/mL (≈ 0.0671 µM)
[4]
  CYP11B2 inhibition effect: no inhibition
